The target of assay [1] is Alpha-1B adrenergic receptor (Homo sapiens, UniProt P35368). In words: GPCRScan assay: inhibition of Alpha1B. Further details: radioligand conc. used [nm] 0.3 – 1.0, parental cells stable HEK.
The nature of assay [2]: NanoBRET assay (AKT1). The settings on record: Homo sapiens. Background: BRET reads energy transfer from a luciferase to a nearby fluorophore.
Assay [3] deals with Aurora kinase A (Homo sapiens) (UniProt O14965). In words: AURKA (Aurora A) SelectScreen Kinase panel (LifeTechnologies). The note with it: Compound concentration 1.0 uM.
Assay [4] addresses Aurora kinase B (Homo sapiens) (UniProt Q96GD4). Description: AURKB (Aurora B) SelectScreen Kinase panel (LifeTechnologies). The settings on record: Compound concentration 1.0 uM.
The target of assay [5] is Tyrosine-protein kinase BTK (Homo sapiens) (UniProt Q06187). Description: BTK SelectScreen Kinase panel (LifeTechnologies). The settings on record: Compound concentration 1.0 uM.
The target in assay [6] is Serine/threonine-protein kinase MRCK alpha (Homo sapiens) (UniProt Q5VT25). Description: CDC42 BPA (MRCKA) SelectScreen Kinase panel (LifeTechnologies). The note with it: Compound concentration 1.0 uM.
Assay [7] concerns the target Fibroblast growth factor receptor 1 (Homo sapiens) (UniProt P11362). Description: FGFR1 SelectScreen Kinase panel (LifeTechnologies). The settings on record: Compound concentration 1.0 uM.
Assay [8] has as its target Ribosomal protein S6 kinase beta-1 (Homo sapiens) (UniProt P23443). Description: RPS6KB1 (p70S6K) SelectScreen Kinase panel (LifeTechnologies). The settings on record: Compound concentration 1.0 uM.
Assay [9] has as its target Muscarinic acetylcholine receptor M2 (Homo sapiens) (UniProt P08172). The settings on record: Compound concentration 10.0 uM.

pKi: −log10 of the molar value. Active and inactive are the calls of the source. The rule behind the calls is not given here.

Chain of Aurora kinase A (Homo sapiens) (O14965 whole entry): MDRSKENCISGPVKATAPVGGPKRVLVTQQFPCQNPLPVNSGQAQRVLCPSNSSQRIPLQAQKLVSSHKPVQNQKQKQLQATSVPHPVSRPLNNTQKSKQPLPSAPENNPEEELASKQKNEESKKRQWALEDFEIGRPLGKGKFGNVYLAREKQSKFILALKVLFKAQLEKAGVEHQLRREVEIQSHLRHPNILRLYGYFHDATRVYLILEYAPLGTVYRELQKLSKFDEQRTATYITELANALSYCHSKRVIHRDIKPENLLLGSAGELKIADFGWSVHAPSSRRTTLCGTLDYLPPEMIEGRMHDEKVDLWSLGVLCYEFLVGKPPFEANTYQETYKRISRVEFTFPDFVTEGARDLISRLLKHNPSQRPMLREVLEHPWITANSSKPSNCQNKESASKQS
Chain of Ribosomal protein S6 kinase beta-1 (Homo sapiens) (P23443 whole entry, looked up): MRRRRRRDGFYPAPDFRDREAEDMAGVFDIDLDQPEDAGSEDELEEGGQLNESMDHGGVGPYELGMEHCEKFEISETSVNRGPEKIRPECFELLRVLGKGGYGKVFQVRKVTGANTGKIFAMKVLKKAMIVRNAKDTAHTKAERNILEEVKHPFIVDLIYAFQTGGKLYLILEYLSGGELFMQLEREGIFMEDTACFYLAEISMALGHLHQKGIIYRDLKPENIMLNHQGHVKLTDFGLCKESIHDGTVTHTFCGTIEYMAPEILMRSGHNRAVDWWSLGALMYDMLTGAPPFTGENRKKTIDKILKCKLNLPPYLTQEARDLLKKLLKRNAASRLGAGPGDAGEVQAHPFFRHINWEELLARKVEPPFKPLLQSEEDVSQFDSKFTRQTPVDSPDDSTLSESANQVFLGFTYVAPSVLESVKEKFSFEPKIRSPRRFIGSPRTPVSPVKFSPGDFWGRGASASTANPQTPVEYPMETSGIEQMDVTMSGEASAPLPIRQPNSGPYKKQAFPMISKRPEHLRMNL
Chain of Alpha-1B adrenergic receptor (P35368 whole entry): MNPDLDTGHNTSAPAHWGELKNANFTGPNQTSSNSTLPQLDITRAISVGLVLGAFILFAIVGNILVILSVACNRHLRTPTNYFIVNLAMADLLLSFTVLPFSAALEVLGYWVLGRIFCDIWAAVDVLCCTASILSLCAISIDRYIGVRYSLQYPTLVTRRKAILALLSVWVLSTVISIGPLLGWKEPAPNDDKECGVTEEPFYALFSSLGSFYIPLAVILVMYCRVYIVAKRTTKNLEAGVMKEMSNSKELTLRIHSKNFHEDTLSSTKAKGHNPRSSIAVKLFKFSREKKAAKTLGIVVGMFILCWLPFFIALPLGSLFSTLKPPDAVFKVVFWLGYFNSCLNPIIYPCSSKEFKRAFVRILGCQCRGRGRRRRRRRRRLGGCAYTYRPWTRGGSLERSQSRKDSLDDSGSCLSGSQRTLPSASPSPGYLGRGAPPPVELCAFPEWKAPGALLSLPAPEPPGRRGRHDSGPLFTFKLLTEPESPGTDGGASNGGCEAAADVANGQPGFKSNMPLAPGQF
Chain of Fibroblast growth factor receptor 1 (Homo sapiens) (P11362 22-822 limits assumed): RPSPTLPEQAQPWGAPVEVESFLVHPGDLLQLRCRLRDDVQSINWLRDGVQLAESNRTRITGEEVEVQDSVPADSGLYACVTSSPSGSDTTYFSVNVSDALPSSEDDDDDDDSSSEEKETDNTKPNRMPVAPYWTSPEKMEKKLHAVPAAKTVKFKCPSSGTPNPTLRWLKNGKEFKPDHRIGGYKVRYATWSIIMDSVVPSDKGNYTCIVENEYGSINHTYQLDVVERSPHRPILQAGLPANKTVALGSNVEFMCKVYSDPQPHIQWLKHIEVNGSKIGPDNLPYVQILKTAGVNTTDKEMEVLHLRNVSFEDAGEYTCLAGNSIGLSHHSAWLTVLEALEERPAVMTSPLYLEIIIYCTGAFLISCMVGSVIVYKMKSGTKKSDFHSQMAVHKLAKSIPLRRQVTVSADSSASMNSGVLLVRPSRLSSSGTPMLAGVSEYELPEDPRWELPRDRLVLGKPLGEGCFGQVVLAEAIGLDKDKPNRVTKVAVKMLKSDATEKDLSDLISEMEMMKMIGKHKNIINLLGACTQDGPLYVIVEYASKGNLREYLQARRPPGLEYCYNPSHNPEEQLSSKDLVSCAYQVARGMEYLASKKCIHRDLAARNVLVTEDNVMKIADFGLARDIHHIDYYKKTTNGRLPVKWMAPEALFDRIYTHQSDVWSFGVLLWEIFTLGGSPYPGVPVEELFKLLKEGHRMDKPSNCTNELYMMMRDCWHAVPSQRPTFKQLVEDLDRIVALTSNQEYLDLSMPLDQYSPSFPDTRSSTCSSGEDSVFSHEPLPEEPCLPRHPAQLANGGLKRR
Chain of Muscarinic acetylcholine receptor M2 (Homo sapiens) (P08172 whole entry): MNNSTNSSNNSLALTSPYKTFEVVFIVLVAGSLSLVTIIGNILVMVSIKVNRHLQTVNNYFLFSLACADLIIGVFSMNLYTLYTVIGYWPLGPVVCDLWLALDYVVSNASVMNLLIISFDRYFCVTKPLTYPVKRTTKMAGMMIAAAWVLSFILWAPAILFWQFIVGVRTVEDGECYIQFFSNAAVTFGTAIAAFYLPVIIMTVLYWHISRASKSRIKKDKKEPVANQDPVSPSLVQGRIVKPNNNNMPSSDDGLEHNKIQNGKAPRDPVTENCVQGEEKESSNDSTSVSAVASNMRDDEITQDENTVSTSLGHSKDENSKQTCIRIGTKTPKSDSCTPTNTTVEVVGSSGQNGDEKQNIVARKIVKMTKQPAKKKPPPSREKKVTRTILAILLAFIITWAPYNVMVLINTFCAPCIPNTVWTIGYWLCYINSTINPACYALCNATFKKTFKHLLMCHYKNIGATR
Chain of Tyrosine-protein kinase BTK (Homo sapiens) (Q06187 whole entry): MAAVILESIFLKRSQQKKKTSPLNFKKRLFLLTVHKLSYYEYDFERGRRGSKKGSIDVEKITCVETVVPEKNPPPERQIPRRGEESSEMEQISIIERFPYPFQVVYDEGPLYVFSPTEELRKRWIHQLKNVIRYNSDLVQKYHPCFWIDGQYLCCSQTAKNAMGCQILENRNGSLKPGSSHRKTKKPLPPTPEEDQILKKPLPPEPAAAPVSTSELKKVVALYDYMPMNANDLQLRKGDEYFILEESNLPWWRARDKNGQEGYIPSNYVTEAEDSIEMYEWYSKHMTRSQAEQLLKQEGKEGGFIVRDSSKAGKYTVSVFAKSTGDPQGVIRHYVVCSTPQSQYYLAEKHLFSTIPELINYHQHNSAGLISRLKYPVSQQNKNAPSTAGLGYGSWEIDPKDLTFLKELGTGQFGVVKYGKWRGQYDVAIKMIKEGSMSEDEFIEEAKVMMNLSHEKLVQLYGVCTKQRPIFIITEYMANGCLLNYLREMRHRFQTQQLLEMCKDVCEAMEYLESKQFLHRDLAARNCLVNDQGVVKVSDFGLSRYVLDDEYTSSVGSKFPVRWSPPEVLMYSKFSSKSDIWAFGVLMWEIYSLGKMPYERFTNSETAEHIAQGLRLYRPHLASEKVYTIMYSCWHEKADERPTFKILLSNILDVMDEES
Chain of Aurora kinase B (Homo sapiens) (Q96GD4 whole entry): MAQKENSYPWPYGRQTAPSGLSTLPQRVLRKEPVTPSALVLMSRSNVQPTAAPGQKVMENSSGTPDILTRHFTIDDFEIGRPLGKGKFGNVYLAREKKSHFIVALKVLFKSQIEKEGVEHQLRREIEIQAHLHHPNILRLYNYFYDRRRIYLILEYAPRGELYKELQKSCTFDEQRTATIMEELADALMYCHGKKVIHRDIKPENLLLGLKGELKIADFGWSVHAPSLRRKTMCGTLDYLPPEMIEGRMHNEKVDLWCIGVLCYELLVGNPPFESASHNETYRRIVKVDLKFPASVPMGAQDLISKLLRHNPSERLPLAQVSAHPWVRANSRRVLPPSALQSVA

For `C=CC(=O)Nc1ccc2[nH]c(=O)n(C3CCN(Cc4ccc(-c5nc6cc[nH]c(=O)c6cc5-c5ccccc5)cc4)CC3)c2c1` [Borussertib], in [1], the pKi is 5.37. Further, the concentration for a half-maximal effect (EC50) in assay [2] is 0.026 µM (active). For the same molecule, the IC50 in assay [2] was 0.021 µM (active). Also, the inhibition in assay [3] was 15%; in [4], 7%; in assay [5], 6%; in assay [6] it was 2%; in assay [7], 25%; in [8], 2%. For the same molecule, the inhibition in assay [9] is 3.07%.

Usually pKi stands for the Ki on a negative log10 scale, so that one unit is a factor of ten. By EC50 is commonly meant the concentration at which the effect is half-maximal. By IC50 is commonly meant the concentration at which inhibition is half-maximal. A word on the inhibition: it is the change of the read-out against control, counted positive when it falls.

These data come from ChEMBL document CHEMBL4800730 (2021).
